# From patent US20090088380A1, “GHRH ANALOGS AND THERAPEUTIC USES THEREOF” (priority 2007, published 2009)
# Non-standard residues stand in square brackets, D forms with d. Residues, ends and D or L forms follow the SMILES beside them.
# Experiments:
# Leptin and adiponectin = experiment: Phase II CKD: fat regulation (leptin, adiponectin); format: in vivo, human
# Protocol: Leptin (ng/mL) and adiponectin (μg/mL) were measured at every visit from baseline to Day 28 as markers for regulating metabolism. Samples were analysed at the Department of Nephrology, Endocrinology and Metabolic Diseases, Silesian University School of Medicine, Katowice.
# [1] = test system: IGF-1, IGFBP-1 and IGFBP-3; experiment: Phase II CKD: total IGF-1, IGFBP-1 and IGFBP-3; format: in vivo, human
# Protocol: Total IGF-1 (ng/mL), insulin-like growth factor binding protein (IGFBP-1 and IGFBP-3, ng/mL) were measured at every visit from baseline to Day 28 as markers for tissue and cell growth and proliferation. Samples were analysed at the Department of Nephrology, Endocrinology and Metabolic Diseases, Silesian University School of Medicine, Katowice using a Medgenix Diagnostics kit.
smiles,measurement,setting,value
"CC[C@H](C)[C@H](NC(=O)[C@H](C)NC(=O)[C@H](CC(=O)O)NC(=O)[C@@H](C)NC(=O)[C@@H](N)Cc1ccc(O)cc1)C(=O)N[C@@H](Cc1ccccc1)C(=O)N[C@H](C(=O)N[C@@H](CC(N)=O)C(=O)N[C@@H](CO)C(=O)N[C@H](Cc1ccc(O)cc1)C(=O)N[C@@H](CCCNC(=N)N)C(=O)N[C@@H](CCCCN)C(=O)N[C@H](C(=O)N[C@@H](CC(C)C)C(=O)N[C@H](C)C(=O)N[C@@H](CCC(N)=O)C(=O)N[C@@H](CC(C)C)C(=O)N[C@@H](CO)C(=O)N[C@@H](C)C(=O)N[C@@H](CCCNC(=N)N)C(=O)N[C@@H](CCCCN)C(=O)N[C@@H](CCCCN)C(=O)N[C@@H](CC(C)C)C(=O)N[C@@H](CCC(N)=O)C(=O)N[C@@H](CC(=O)O)C(=O)N[C@H](C(=O)N[C@@H](CCSC)C(=O)N[C@@H](CO)C(=O)N[C@@H](CCCNC(=N)N)C(N)=O)[C@@H](C)CC)C(C)C)[C@@H](C)O [GHRH analog #5, [D-Ala^2, D-Tyr^10, D-Ala^15, Lys^22] hGHRH(1-29)-NH2] (H-Y[dA]DAIFTNS[dY]RKVL[dA]QLSARKKLQDIMSR-NH2)",Adiponectin: median (95% CI),"Leptin and adiponectin; ITT, Baseline",20604 ng/mL
same,Leptin: mean (SD),"Leptin and adiponectin; ITT, Baseline",23.80 (34.29) ng/mL
same,Adiponectin: median (95% CI),"Leptin and adiponectin; ITT, Day 7",21293 (14535; 27438) ng/mL
same,Adiponectin: median (95% CI),"Leptin and adiponectin; ITT, Day 14",21548 (15810; 27030) ng/mL
same,Adiponectin: median (95% CI),"Leptin and adiponectin; ITT, Day 21",21905 (15810; 31365) ng/mL
same,Adiponectin: median (95% CI),"Leptin and adiponectin; ITT, Day 28",20553 (16320; 27030) ng/mL
same,Leptin: mean (SD),"Leptin and adiponectin; ITT, Day 28",16.81 (21.81) ng/mL
same,Leptin: ratio of means,"Leptin and adiponectin; ITT, Day 28, vs placebo",0.866
same,"Leptin reduction from baseline, range in all but two patients",Leptin and adiponectin; day 28,10-70%
same,Mean leptin as % of the mean in placebo group,Leptin and adiponectin; in vivo,70%
same,Mean decrease in IGFBP-1 concentration,[1]; 4-week treatment,26.7%
same,IGFBP-3: adjusted difference between treatments,[1]; ITT,580.85 ng/mL
same,IGFBP-1: mean (SD),"[1]; ITT, Baseline",74.98 (39.13) ng/mL
same,IGFBP-3: median,"[1]; ITT, Baseline",4039.6 (813.7) ng/mL
same,Total IGF-1: median (95% CI),"[1]; ITT, Baseline",335.8 (—) ng/mL
same,Total IGF-1: median (95% CI),"[1]; ITT, Baseline, listed as GHRH(1-29)NH2 synthetic analog",335.8 ng/mL
same,Total IGF-1: median (95% CI),"[1]; ITT, Day 7",576.0 (494.10; 828.70) ng/mL
same,Total IGF-1: median (95% CI),"[1]; ITT, Day 14",611.8 (490.40; 913.60) ng/mL
same,Total IGF-1: median (95% CI),"[1]; ITT, Day 21",729.8 (497.10; 913.50) ng/mL
same,IGFBP-1: mean (SD),"[1]; ITT, Day 28",54.94 (30.72) ng/mL
same,IGFBP-3: median,"[1]; ITT, Day 28",5130.8 (961.0) ng/mL
same,Total IGF-1: median (95% CI),"[1]; ITT, Day 28",684.2 (564.10; 881.80) ng/mL
same,Total IGF-1: median (95% CI),"[1]; ITT, Day 28, listed as GHRH(1-29)NH2 synthetic analog",684.2 ng/mL
same,IGFBP-1: adjusted difference between GHRH and placebo,"[1]; ITT, listed as GHRH(1-29)NH2 synthetic analog",28.40 ng/mL
same,Median total IGF-1: increase,[1]; baseline to day 28,104%
